Experimental data reported in PubChem BioAssay AID1845199 (Molecular Pharmacology Branch, DTP, NCI, 2023).

Test system: 556581-035-R-J1 tumor spheroid viability, % test/control
Test: Anticancer human tumor 556581-035-R-J1 patient-derived ovarian carcinoma cell line growth inhibition
Conditions: spheroids with HUVEC and MSC; for IC50: curve of first compound; for viability, T/C: stronger effect = lower value
Summary of the method: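 Complex spheroids of malignant cells with endothelial cells and mesenchymal stem cells; agents alone or combined, from near clinical Cmax (or 10 microM if unknown) down in half-log steps, 0.25% DMSO final.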

[1] = second compound 0.003 µM, first compound 0.0316 µM
[2] = second compound 0.003 µM, first compound 0.1 µM
[3] = second compound 0.003 µM, first compound 0.316 µM
[4] = second compound 0.003 µM, first compound 1 µM
[5] = second compound 0.003 µM, first compound 3.16 µM
[6] = second compound 0.003 µM, first compound 10 µM
[7] = second compound 0.00949 µM, first compound 0.0316 µM
[8] = second compound 0.00949 µM, first compound 0.1 µM
[9] = second compound 0.00949 µM, first compound 0.316 µM
[10] = second compound 0.00949 µM, first compound 1 µM
[11] = second compound 0.00949 µM, first compound 3.16 µM
[12] = second compound 0.00949 µM, first compound 10 µM
[13] = second compound 0.03 µM, first compound 0.0316 µM
[14] = second compound 0.03 µM, first compound 0.1 µM
[15] = second compound 0.03 µM, first compound 0.316 µM
[16] = second compound 0.03 µM, first compound 1 µM
[17] = second compound 0.03 µM, first compound 3.16 µM
[18] = second compound 0.03 µM, first compound 10 µM
[19] = second compound 0.0949 µM, first compound 0.0316 µM
[20] = second compound 0.0949 µM, first compound 0.1 µM
[21] = second compound 0.0949 µM, first compound 0.316 µM
[22] = second compound 0.0949 µM, first compound 1 µM
[23] = second compound 0.0949 µM, first compound 3.16 µM
[24] = second compound 0.0949 µM, first compound 10 µM
[25] = second compound 0.3 µM, first compound 0.0316 µM
[26] = second compound 0.3 µM, first compound 0.1 µM
[27] = second compound 0.3 µM, first compound 0.316 µM
[28] = second compound 0.3 µM, first compound 1 µM
[29] = second compound 0.3 µM, first compound 3.16 µM
[30] = second compound 0.3 µM, first compound 10 µM
[31] = second compound 0.003 µM, first compound 0.00949 µM
[32] = second compound 0.003 µM, first compound 0.03 µM
[33] = second compound 0.003 µM, first compound 0.0949 µM
[34] = second compound 0.003 µM, first compound 0.3 µM
[35] = second compound 0.003 µM, first compound 0.949 µM
[36] = second compound 0.003 µM, first compound 3 µM
[37] = second compound 0.00949 µM, first compound 0.00949 µM
[38] = second compound 0.00949 µM, first compound 0.03 µM
[39] = second compound 0.00949 µM, first compound 0.0949 µM
[40] = second compound 0.00949 µM, first compound 0.3 µM
[41] = second compound 0.00949 µM, first compound 0.949 µM
[42] = second compound 0.00949 µM, first compound 3 µM
[43] = second compound 0.03 µM, first compound 0.00949 µM
[44] = second compound 0.03 µM, first compound 0.03 µM
[45] = second compound 0.03 µM, first compound 0.0949 µM
[46] = second compound 0.03 µM, first compound 0.3 µM
[47] = second compound 0.03 µM, first compound 0.949 µM
[48] = second compound 0.03 µM, first compound 3 µM
[49] = second compound 0.0949 µM, first compound 0.00949 µM
[50] = second compound 0.0949 µM, first compound 0.03 µM
[51] = second compound 0.0949 µM, first compound 0.0949 µM
[52] = second compound 0.0949 µM, first compound 0.3 µM
[53] = second compound 0.0949 µM, first compound 0.949 µM
[54] = second compound 0.0949 µM, first compound 3 µM
[55] = second compound 0.3 µM, first compound 0.00949 µM
[56] = second compound 0.3 µM, first compound 0.03 µM
[57] = second compound 0.3 µM, first compound 0.0949 µM
[58] = second compound 0.3 µM, first compound 0.3 µM
[59] = second compound 0.3 µM, first compound 0.949 µM
[60] = second compound 0.3 µM, first compound 3 µM
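Also: spheroids exposed to compounds for 7 days before viability read.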

## COc1cc(C)[nH]c(=O)c1CN1CCc2c(Cl)cc(C(OC)C3COC3)c(Cl)c2C1=O (stereo not given) + CC[C@@]1(O)C(=O)OCc2c1cc1n(c2=O)Cc2cc3c(CN(C)C)c(O)ccc3nc2-1
Second compound 0.003 µM
  IC50: > 10000 nM
Second compound 0.00949 µM
  IC50: > 10000 nM
Second compound 0.03 µM
  IC50: > 10000 nM
Second compound 0.0949 µM
  IC50: < 31.6 nM
Second compound 0.3 µM
  IC50: < 31.6 nM
[1]
  viability, T/C: 93.5%
[2]
  viability, T/C: 103%
[3]
  viability, T/C: 98.2%
[4]
  viability, T/C: 101%
[5]
  viability, T/C: 101%
[6]
  viability, T/C: 94.9%
[7]
  viability, T/C: 90%
[8]
  viability, T/C: 92.1%
[9]
  viability, T/C: 85.8%
[10]
  viability, T/C: 87.1%
[11]
  viability, T/C: 91.5%
[12]
  viability, T/C: 86.3%
[13]
  viability, T/C: 64.9%
[14]
  viability, T/C: 65.1%
[15]
  viability, T/C: 64.3%
[16]
  viability, T/C: 65.3%
[17]
  viability, T/C: 67.9%
[18]
  viability, T/C: 65.4%
[19]
  viability, T/C: 45.3%
[20]
  viability, T/C: 48.7%
[21]
  viability, T/C: 49.9%
[22]
  viability, T/C: 49.2%
[23]
  viability, T/C: 47.9%
[24]
  viability, T/C: 47.1%
[25]
  viability, T/C: 13.2%
[26]
  viability, T/C: 9.94%
[27]
  viability, T/C: 12.4%
[28]
  viability, T/C: 12%
[29]
  viability, T/C: 10.7%
[30]
  viability, T/C: 11.1%

## CNCc1ccc(-c2cc(-c3nc(-c4ccc(S(=O)(=O)C(C)C)cc4)cnc3N)on2)cc1 + CC[C@@]1(O)C(=O)OCc2c1cc1n(c2=O)Cc2cc3c(CN(C)C)c(O)ccc3nc2-1
Second compound 0.003 µM
  IC50: 1380 nM
Second compound 0.00949 µM
  IC50: 1170 nM
Second compound 0.03 µM
  IC50: 854 nM
Second compound 0.0949 µM
  IC50: 270 nM
Second compound 0.3 µM
  IC50: < 9.49 nM
[31]
  viability, T/C: 101%
[32]
  viability, T/C: 94.6%
[33]
  viability, T/C: 100%
[34]
  viability, T/C: 104%
[35]
  viability, T/C: 67.6%
[36]
  viability, T/C: 13.7%
[37]
  viability, T/C: 88.7%
[38]
  viability, T/C: 90.5%
[39]
  viability, T/C: 87.1%
[40]
  viability, T/C: 93.6%
[41]
  viability, T/C: 59%
[42]
  viability, T/C: 9.61%
[43]
  viability, T/C: 83.7%
[44]
  viability, T/C: 84.7%
[45]
  viability, T/C: 92.4%
[46]
  viability, T/C: 75%
[47]
  viability, T/C: 47.8%
[48]
  viability, T/C: 9.43%
[49]
  viability, T/C: 64.4%
[50]
  viability, T/C: 67%
[51]
  viability, T/C: 59%
[52]
  viability, T/C: 47.6%
[53]
  viability, T/C: 31.3%
[54]
  viability, T/C: 1.58%
[55]
  viability, T/C: 16.8%
[56]
  viability, T/C: 15.9%
[57]
  viability, T/C: 14.3%
[58]
  viability, T/C: 11.8%
[59]
  viability, T/C: 8.45%
[60]
  viability, T/C: 0.85%

## Cc1sc2c(c1C)C(c1ccc(Cl)cc1)=NC(CC(=O)Nc1ccc(O)cc1)c1nnc(C)n1-2 (stereo not given) + CC[C@@]1(O)C(=O)OCc2c1cc1n(c2=O)Cc2cc3c(CN(C)C)c(O)ccc3nc2-1
Second compound 0.003 µM
  IC50: > 3000 nM
Second compound 0.00949 µM
  IC50: > 3000 nM
Second compound 0.03 µM
  IC50: > 3000 nM
Second compound 0.0949 µM
  IC50: 281 nM
Second compound 0.3 µM
  IC50: < 9.49 nM
[31]
  viability, T/C: 103%
[32]
  viability, T/C: 85.4%
[33]
  viability, T/C: 83.8%
[34]
  viability, T/C: 74.8%
[35]
  viability, T/C: 77.5%
[36]
  viability, T/C: 74.2%
[37]
  viability, T/C: 99.4%
[38]
  viability, T/C: 84.3%
[39]
  viability, T/C: 74%
[40]
  viability, T/C: 68.8%
[41]
  viability, T/C: 71.4%
[42]
  viability, T/C: 64.2%
[43]
  viability, T/C: 74.3%
[44]
  viability, T/C: 76.5%
[45]
  viability, T/C: 68.8%
[46]
  viability, T/C: 66.7%
[47]
  viability, T/C: 65.6%
[48]
  viability, T/C: 54.7%
[49]
  viability, T/C: 59.3%
[50]
  viability, T/C: 58.4%
[51]
  viability, T/C: 56.2%
[52]
  viability, T/C: 50.7%
[53]
  viability, T/C: 39.6%
[54]
  viability, T/C: 41.4%
[55]
  viability, T/C: 16.4%
[56]
  viability, T/C: 16.9%
[57]
  viability, T/C: 12.9%
[58]
  viability, T/C: 17.1%
[59]
  viability, T/C: 18.6%
[60]
  viability, T/C: 11.3%

## COc1ccc([C@@H](O)c2cc(-c3ncnc4cc(N5CCOCC5)ccc34)c(F)cc2Cl)nn1 + CC[C@@]1(O)C(=O)OCc2c1cc1n(c2=O)Cc2cc3c(CN(C)C)c(O)ccc3nc2-1
Second compound 0.003 µM
  IC50: 1960 nM
Second compound 0.00949 µM
  IC50: 1540 nM
Second compound 0.03 µM
  IC50: 785 nM
Second compound 0.0949 µM
  IC50: < 31.6 nM
Second compound 0.3 µM
  IC50: < 31.6 nM
[1]
  viability, T/C: 99.8%
[2]
  viability, T/C: 99.8%
[3]
  viability, T/C: 83.4%
[4]
  viability, T/C: 63.7%
[5]
  viability, T/C: 40.5%
[6]
  viability, T/C: 31%
[7]
  viability, T/C: 85%
[8]
  viability, T/C: 86.9%
[9]
  viability, T/C: 75.3%
[10]
  viability, T/C: 57.8%
[11]
  viability, T/C: 37.8%
[12]
  viability, T/C: 31.2%
[13]
  viability, T/C: 70.9%
[14]
  viability, T/C: 64%
[15]
  viability, T/C: 62.9%
[16]
  viability, T/C: 46.6%
[17]
  viability, T/C: 33.7%
[18]
  viability, T/C: 29.5%
[19]
  viability, T/C: 48.6%
[20]
  viability, T/C: 47.6%
[21]
  viability, T/C: 50.5%
[22]
  viability, T/C: 41.8%
[23]
  viability, T/C: 30.8%
[24]
  viability, T/C: 25.5%
[25]
  viability, T/C: 13.7%
[26]
  viability, T/C: 11.9%
[27]
  viability, T/C: 11.6%
[28]
  viability, T/C: 13.2%
[29]
  viability, T/C: 17.4%
[30]
  viability, T/C: 18.5%
